PubChem BioAssay AID1259407 (Chemical Carcinogenesis Research Information System (CCRIS), 2018)
Active and inactive are the calls of the source. The rule behind the calls is not given here.

Test system: CCRIS mutagenicity, Ames/micronucleus/aberration tests
Test: CCRIS mutagenicity studies

With C=C(CC)C(=O)c1ccc(OCC(=O)O)c(Cl)c1Cl as the compound, how does the mutagenic call (Test System: AMES SALMONELLA TYPHIMURIUM, Strain/Indicator: TA97, Metabolic Activation: HAMSTER, LIVER, S-9, AROCLOR 1254 (10 OR 30%), Method: PREINCUBATION) read?
Its mutagenic call is “inactive; negative”.

What about the mutagenic call (Test System: AMES SALMONELLA TYPHIMURIUM, Strain/Indicator: TA97, Metabolic Activation: NONE, Method: PREINCUBATION) of the same compound?
The mutagenic call was “inactive; negative”.

What about the mutagenic call (Test System: AMES SALMONELLA TYPHIMURIUM, Strain/Indicator: TA97, Metabolic Activation: RAT, LIVER, S-9, AROCLOR 1254 (10 OR 30%), Method: PREINCUBATION) of the same compound?
Its mutagenic call is “inactive; negative”.

What about the mutagenic call (Test System: AMES SALMONELLA TYPHIMURIUM, Strain/Indicator: TA98, Metabolic Activation: HAMSTER, LIVER, S-9, AROCLOR 1254 (10 OR 30%), Method: PREINCUBATION) of the same compound?
Its mutagenic call is “inactive; negative”.

And the mutagenic call (Test System: AMES SALMONELLA TYPHIMURIUM, Strain/Indicator: TA98, Metabolic Activation: NONE, Method: PREINCUBATION)?
The mutagenic call was “inactive; negative”.

What about the mutagenic call (Test System: AMES SALMONELLA TYPHIMURIUM, Strain/Indicator: TA98, Metabolic Activation: RAT, LIVER, S-9, AROCLOR 1254 (10 OR 30%), Method: PREINCUBATION) of the same compound?
The mutagenic call was “inactive; negative”.

What about the mutagenic call (Test System: AMES SALMONELLA TYPHIMURIUM, Strain/Indicator: TA100, Metabolic Activation: HAMSTER, LIVER, S-9, AROCLOR 1254 (10 OR 30%), Method: PREINCUBATION) of the same compound?
Its mutagenic call is “inactive; negative”.

And the mutagenic call (Test System: AMES SALMONELLA TYPHIMURIUM, Strain/Indicator: TA100, Metabolic Activation: NONE, Method: PREINCUBATION)?
The mutagenic call was “inactive; negative”.

What about the mutagenic call (Test System: AMES SALMONELLA TYPHIMURIUM, Strain/Indicator: TA100, Metabolic Activation: RAT, LIVER, S-9, AROCLOR 1254 (10 OR 30%), Method: PREINCUBATION) of the same compound?
Its mutagenic call is “inactive; negative”.

And the mutagenic call (Test System: AMES SALMONELLA TYPHIMURIUM, Strain/Indicator: TA1535, Metabolic Activation: HAMSTER, LIVER, S-9, AROCLOR 1254 (10 OR 30%), Method: PREINCUBATION)?
The mutagenic call was “inactive; negative”.

What about the mutagenic call (Test System: AMES SALMONELLA TYPHIMURIUM, Strain/Indicator: TA1535, Metabolic Activation: NONE, Method: PREINCUBATION) of the same compound?
Its mutagenic call is “inactive; negative”.

And the mutagenic call (Test System: AMES SALMONELLA TYPHIMURIUM, Strain/Indicator: TA1535, Metabolic Activation: RAT, LIVER, S-9, AROCLOR 1254 (10 OR 30%), Method: PREINCUBATION)?
The mutagenic call was “inactive; negative”.

What does the source list for Cc1c2ccccc2c(CO)c2ccc3ccccc3c12?
mutagenic call (Test System: AMES SALMONELLA TYPHIMURIUM, Strain/Indicator: TA98, Metabolic Activation: HUMAN, LIVER, CYTOSOL, PAPS, Method: PREINCUBATION): active; positive; mutagenic call (Test System: AMES SALMONELLA TYPHIMURIUM, Strain/Indicator: TA100, Metabolic Activation: RAT, LIVER, PARENCHYMAL CELLS (CRYOPRESERVED), Method: PREINCUBATION): inactive; negative; mutagenic call (Test System: AMES SALMONELLA TYPHIMURIUM, Strain/Indicator: TA100, Metabolic Activation: RAT, LIVER, PARENCHYMAL CELLS (FRESHLY ISOLATED), Method: PREINCUBATION): active; positive; mutagenic call (Test System: AMES SALMONELLA TYPHIMURIUM, Strain/Indicator: TA100, Metabolic Activation: RAT, LIVER, S-9, AROCLOR 1254, Method: STANDARD PLATE): active; positive; mutagenic call (Test System: CHINESE HAMSTER V-79, Strain/Indicator: V-79/6-THIOGUANINE, Metabolic Activation: CELL-MEDIATED, Method: STANDARD PLATE): active; positive; mutagenic call (Test System: CHINESE HAMSTER V-79, Strain/Indicator: V-79/OUABAIN, Metabolic Activation: CELL-MEDIATED, Method: STANDARD PLATE): active; positive
